Experimental data taken from paper PMC12724136, “Design of antibody structure-guided epitope vaccines in silico to induce potent immune responses against emerging viruses” (Journal of Virology, 2025).

Legend:
scFv1 [1] = assay: Yeast two-hybrid assay of epitope peptides with scFv1; type: cell-based, Nile tilapia (Oreochromis niloticus); conditions: pGBKT-scFv1 bait, pGADT-peptide; Y2Hgold; 96 h
Protocol: The pGBKT-scFv1 bait plasmid was transformed into Y2Hgold yeast competent cells (WEIDI) and cultured in SD-deficient medium (Beijing Zoman Biotechnology Co., Ltd.) to confirm the absence of self-activation. Subsequently, pGADT-P30, pGADT-S390F, and pGADT-G394K plasmids, along with the pGBKT-scFv1 bait plasmid, were co-transformed into Y2Hgold yeast competent cells. The cells were then cultured on LT-deficient SD and LTHA-deficient SD medium for 48–96 h to observe the expression of the reporter genes. Additionally, the pGADT-T plasmid was co-transformed with the pGBKT-53 and pGBKT-lam plasmids and cultured as positive and negative controls, respectively.

scFv1 [2] = assay: Cellular co-localization of epitope peptides with scFv1 in HEK293T cells; type: cell-based, Nile tilapia (Oreochromis niloticus); conditions: pEGFP-peptide and pCMV-DsRed-scFv1 in HEK293T, 48 h, confocal
Protocol: The pEGFP-P30, S390F, and G394K plasmids, along with the pCMV-C-DsRed-scFv1 plasmid, were co-transfected into HEK293T cells and cultured for 48 h. Afterward, the cells were fixed with 4% paraformaldehyde, permeabilized, and stained with DPAI (Beyotime), which contains an anti-fluorescence quencher. The expression and co-localization of proteins in cells were observed using confocal fluorescence microscopy.

scFv1 [3] = assay: Co-immunoprecipitation of epitope peptides with scFv1 in HEK293T cells; type: cell-based, Nile tilapia (Oreochromis niloticus); conditions: for Co-IP with scFv1, His-tag system: His-tagged peptide and Flag-scFv1 co-transfected in HEK293T; for Co-IP with scFv1, GFP tag system: pEGFP-peptide and pCMV-Flag-scFv1 co-transfected in HEK293T, 48 h
Protocol: Protein samples were extracted following the co-transfection of HEK293T cells with plasmids containing P30, S390F, G394K, and scFv1 for 48 h, respectively. Subsequent Co-IP assays were performed using the kit (Beyotime) in accordance with the provided protocol. In brief, TBS-washed protein A + G magnetic beads were incubated with GFP-tagged IgG2a mAb (1:3,000, Proteintech) for 1 h at room temperature. Subsequently, the samples were incubated at 4°C overnight. Following the washing of the beads with cell lysates containing protease inhibitors, protein elution was completed with SDS-PAGE loading buffer (Solarbio) for protein blotting. In the Western blot analysis, the GFP-tagged IgG2a mAb (1:3,000) and the Flag-tagged mouse mAb (1:2,000, Beyotime) were employed to identify the IP and input protein samples, respectively. Furthermore, all samples were characterized with a reference protein antibody (β-actin) as a standard control. Enzyme-labeled secondary antibodies consisted of HRP-conjugated goat anti-mouse IgG (1:4,000). The bands were visualized using the ECL Plus hypersensitive luminescent solution (Solarbio) and photographed with a chemiluminescence program. In addition, the His tag system was also used to verify the interaction between epitope peptides, such as P30 and scFv1. Plasmids encoding P30, S390F, and G394K fused with His tags and the plasmid encoding scFv1 fused with a Flag tag were co-transfected into HEK293T cells, respectively. The His-tag monoclonal antibody (1:500, Proteintech) was bound to A + G magnetic beads and used to detect the interaction, and all other operation steps were performed as described above.

tilapia IgM = assay: Serum antibody levels of tilapia after immunization with epitope peptides (ELISA); type: in vivo, Nile tilapia (Oreochromis niloticus); conditions: for immunogenicity (serum antibody titer) after single immunization: 20 µg peptide i.m. with Freund's adjuvant, 7-28 days; for immunogenicity (serum IgM antibody levels) after primary and booster immunization: 20 µg peptide i.m., booster after 14 days, 7-42 days
Source text: Epitope vaccines usually need to be modified with Freund’s adjuvant (Beyotime) before immunization. Briefly, for a single immunization, the epitope peptide is mixed with an equal dose of complete Freund’s adjuvant and then administered to tilapia. For booster immunization, an equal dose of incomplete Freund’s adjuvant is fused with the epitope peptide before vaccination. For the S1, S3, and S10 epitope vaccine immunization programs, healthy Oreochromis niloticus were divided into six groups (70 fish per group) and vaccinated with 20 µg of peptide vaccine by intramuscular injection. During the 1–4 week immunization period, we collected four fish serum samples weekly for immunological analysis.
In the immunization experiments based on the P30-designed vaccine, healthy Nile tilapia were divided into four groups (70 fish per group) and injected intramuscularly with 20 µg of peptide vaccine to complete the primary immunization. After 14 days, the same dose of vaccine was administered again to complete the booster immunization. Serum and tissue samples were collected from 4 fishes in each group weekly after the primary immunization, for a total of 6 weeks. Furthermore, a PBS control was incorporated into both immunization experiments, and the immunization process was conducted in accordance with the aforementioned methodology.
Serum antibody levels after immunization were determined by indirect ELISA. Specifically, serum samples were diluted appropriately, coated to enzyme-labeled plates, and incubated overnight at 4°C. After being washed three times with PBST buffer, each well was incubated with mouse anti-tilapia IgM mAb (1:5,000) at 37°C for 1 h. After washing, each well was incubated with HRP-conjugated goat anti-mouse IgG (1:5,500) for an additional hour. Color development was carried out as described above.

TiLV-positive IgM = assay: Indirect ELISA, affinity of synthetic peptides for TiLV-positive serum; type: binding, tilapia; conditions: peptides 0.1 to 100 μg/mL
Protocol: The indirect ELISA was used to determine the affinity of synthetic peptides for the scFv1 protein and TiLV-positive serum. For the affinity detection of scFv1, the synthetic peptides were diluted at different concentrations (0.01–100 μg/mL) and coated in a microplate. After blocking, scFv1 protein (50 µg/mL) was added and incubated for 2 h at 37°C. In order to reduce the interference of non-specific binding, 50 µg/mL of BSA protein was used as a control for the analysis of binding to the antigenic peptides. Subsequently, 100 µL of 6×His-tag mouse mAb was added to each well and incubated for 1 h, followed by the addition of 100 µL of HRP-conjugated goat anti-mouse IgG for another hour. The color development and OD measurements were performed as described previously. For the affinity detection of serum, 100 µL of positive serum (1:200) was added to each well. The primary antibody was then replaced with mouse anti-tilapia IgM mAb (Frdbio), while all other steps remained unchanged.

scFv1 [4] = assay: Western blot, binding of S3 epitope peptide and mutants to GST-scFv1; parameters: species or system Nile tilapia (Oreochromis niloticus); conditions: PVDF membrane with GST-scFv1 incubated with S3 proteins 37°C 2 h; 6×His tag antibody
Protocol: The PET-N-GST-scFv1 plasmid was constructed using seamless cloning technology (Vazyme), and the protein was obtained through a prokaryotic expression system. The scFv1 protein was purified using GST resin (Beyotime) and stored after lyophilization. Similarly, S3-WT, S3-MuT-^Y386^A, S3-MuT-^R393^A, S3-MuT-^L398^A, and S3-MuT were expressed in prokaryotes using the pET32a plasmid. In the Western blot experiment, after blocking, the PVDF membrane containing GST-scFv1 blots was incubated with each of the five S3 proteins at 37°C for 2 h. Subsequently, the anti-6×His tag mouse mAb was used as the primary antibody, and HRP-conjugated goat anti-mouse IgG was used as the secondary antibody. The ECL color development steps were performed as described above.

[5] = molecular target: T1, S10-WT epitope peptide (S10 55–66) (tilapia lake virus (TiLV)); assay: ELISA; conditions: both partners purified
T1 construct: source: synthetic peptide (solid phase, SynthBio)
T1 peptide: NIEWGDEVDLEM

[6] = molecular target: T2, S1-Mut epitope peptide (S1 231–250, alanine mutant) (tilapia lake virus (TiLV)); assay: ELISA; conditions: both partners purified
T2 construct: source: synthetic peptide (solid phase, SynthBio)
T2 peptide: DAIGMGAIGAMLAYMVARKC

[7] = molecular target: T3, S3-WT epitope peptide (S3 385–400) (tilapia lake virus (TiLV)); assay: ELISA; conditions: both partners purified
T3 construct: source: synthetic peptide (solid phase, SynthBio)
T3 peptide: GYQLASEIRGTIPLSS

[8] = molecular target: T4, S1-WT epitope peptide (S1 231–250) (tilapia lake virus (TiLV)); assay: ELISA; conditions: both partners purified
T4 construct: source: synthetic peptide (solid phase, SynthBio)
T4 peptide: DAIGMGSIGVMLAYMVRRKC

[9] = molecular target: T5, S10-Mut epitope peptide (S10 55–66, alanine mutant) (tilapia lake virus (TiLV)); assay: ELISA; conditions: both partners purified
T5 construct: source: synthetic peptide (solid phase, SynthBio)
T5 peptide: NIEAGAAVALEM

[10] = molecular target: T6, S390F epitope peptide (P30 with S390F), synthetic (tilapia lake virus (TiLV), S390F (stands in the printed letters)); assay: SPR; conditions: both partners purified
T6 construct: source: synthetic peptide (solid phase, SynthBio)
T6 peptide: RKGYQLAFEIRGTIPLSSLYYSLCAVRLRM

In the case of RKGYQLASEIRGTIPLSSLYYSLCAVRLRM [P30], the “yeast two-hybrid growth on LTHA-deficient SD medium” value (scFv1 [1]) is reported as “exhibited plaque growth”, the “co-localization with scFv1 in cells” value (scFv1 [2]) is reported as “co-localized with the antibody” and the “Co-IP with scFv1, His-tag system” value (scFv1 [3]) is reported as “showed interactions with scFv1”. The “Co-IP with scFv1, GFP tag system” value (scFv1 [3]) was “able to bind to the antibody”.

In the case of DAIGMGSIGVMLAYMVRRKC [S1WT], the “immunogenicity (serum antibody titer) after single immunization” value (shortened to “immunogenicity (serum antibody titer)”) (tilapia IgM) is reported as “robust immune responses”.

For RKGYQLASEIRGFIPLSSLYYSLCAVRLRM [T395F], the “affinity to TiLV-specific positive serum” value (TiLV-positive IgM) was “did not show improved affinity compared to P30” and the “immunogenicity (serum IgM antibody levels) after primary and booster immunization” value (tilapia IgM) was “failed to show significantly improved immunogenicity”.

For GAQLASEIAGTIPASS [S3MuT], the “binding to GST-scFv1 by Western blot” value (scFv1 [4]) was “did not show the protein” and the “immunogenicity (serum antibody titer)” value (tilapia IgM) was “lower antibody stimulation level”.

In the case of RKGYQLASEIRGTIPLSSLYYYLCAVRLRM [S404Y], the “affinity to TiLV-specific positive serum” value (TiLV-positive IgM) is reported as “did not show improved affinity compared to P30” and the “immunogenicity (serum IgM antibody levels) after primary and booster immunization” value (tilapia IgM) is reported as “failed to show significantly improved immunogenicity”.

For NIEWGDEVDLEM [S10WT], the “immunogenicity (serum antibody titer)” value (tilapia IgM) was “robust immune responses”.

In the case of DAIGMGAIGAMLAYMVARKC [S1MuT], the “immunogenicity (serum antibody titer)” value (tilapia IgM) is reported as “lower antibody stimulation level”.

In the case of RKGYQLASEIRKTIPLSSLYYSLCAVRLRM [G394K], the “yeast two-hybrid growth on LTHA-deficient SD medium” value (scFv1 [1]) is reported as “did not exhibit any growth”, the “co-localization with scFv1 in cells” value (scFv1 [2]) is reported as “failed to bind to the antibody” and the “Co-IP with scFv1, His-tag system” value (scFv1 [3]) is reported as “did not”. The “Co-IP with scFv1, GFP tag system” value (scFv1 [3]) was “negative in the Co-IP reaction”.

In the case of NIEAGAAVALEM [S10MuT], the “immunogenicity (serum antibody titer)” value (tilapia IgM) is reported as “lower antibody stimulation level”.

B1: scFv1, prokaryote-expressed (pET32a-scFv1) (scFv)
scFv: MSHRLTCAYSGFSSDIHAVWVRQAAGKGLEWIAYISDSSAYIYYSQSVRGRFTISRDNSRKQVYLQMNSLTTEDSAVYYCTREGSGFAFDYWGKGTGGGGSGGGGSGGGGSVTISATGSSNIGADLSWYLQKTGETPKLLIYKASTRSSGTPPRFSGSTSGSQYTLTISGVQAEDAGDYYCLGDHGGGALTFGGGTK
notes: also called antibody scFv1; source: E. coli BL21, prokaryotic expression (pET32a-scFv1); freeze-dried, dissolved in PBS
B1: binds [5]; binds [6]; binds [7]. The binding result [8] was “binds”, the binding result [9] was “binds” and the Kd [10] was 573 nM.

B2: scFv1, expressed in CHO cells (pcDNA3.1-scFv1) (scFv)
scFv: MSHRLTCAYSGFSSDIHAVWVRQAAGKGLEWIAYISDSSAYIYYSQSVRGRFTISRDNSRKQVYLQMNSLTTEDSAVYYCTREGSGFAFDYWGKGTGGGGSGGGGSGGGGSVTISATGSSNIGADLSWYLQKTGETPKLLIYKASTRSSGTPPRFSGSTSGSQYTLTISGVQAEDAGDYYCLGDHGGGALTFGGGTK
notes: also called eukaryote-expressed scFv1; source: CHO cells, eukaryotic expression (pcDNA3.1-scFv1)
B2: binds [5]; binds [6]; binds [7]. B2: binds [8]; binds [9].
